From patent US20250295617A1, “METABOLITES FOR TREATMENT AND PREVENTION OF AUTOIMMUNE DISEASE” (MONASH UNIVERSITY, priority 2016, published 2025)

Assays:
[1] = tested on: pancreatic islets; experiment: Insulitis scoring of pancreatic islets; format: in vivo, mouse; conditions: 10 weeks of age, 5 weeks after starting acetate treatment
Text: Pancreatic tissue was processed and stained using standard procedures. For insulitis scoring, pancreata sections were taken at 3 […] (100 μm apart). At least 100 islets were scored from 5 to 15 mice. Islets were graded according to the following system: Grade 0—no indication of insulitis, Grade 1—<25% infiltration, Grade 2—25-50% infiltration, Grade 3—50-75% infiltration, and Grade 4—>75% infiltration.

[2] = tested on: female NOD mice; conditions: acetate in drinking water from 5 weeks of age
Protocol: To standardise microbiota, prior to beginning diets mice from multiple litters were mixed and randomly allocated to groups. The purified diets used were based on a balanced modification of the AIN93-G diet as described previously (Bajka et al., 2006). Mice were fed for 3-5 weeks starting at 3, 5 or 10 weeks of age. SCFAs in faeces, blood and caecal content were analysed as previously described in (Bajka et al., 2006). Diabetes was monitored as previously described (Mariño et al., 2009).
To determine whether oral administration of acetate (to increase its concentration in the circulation) could modulate disease progression, acetate was added to the drinking water of NOD female mice.

SMILES: CC(=O)[O-].[Na+] [acetate, sodium acetate]
- insulitis (islet infiltration) [1]: more pancreatic islets without immune cell infiltration, and fewer islets with high-grade infiltration
- development of diabetes ([2]; vs controls): significantly delayed
- T1D incidence ([2]; at age 30 weeks): 40%
